{"source": "ChEMBL document CHEMBL5620362", "about": "(Eur J Med Chem, 2023)", "key": {"[1]": {"target": "T1, Nuclear receptor ROR-gamma (Homo sapiens) (UniProt P51449)", "T1 sequence (whole entry)": "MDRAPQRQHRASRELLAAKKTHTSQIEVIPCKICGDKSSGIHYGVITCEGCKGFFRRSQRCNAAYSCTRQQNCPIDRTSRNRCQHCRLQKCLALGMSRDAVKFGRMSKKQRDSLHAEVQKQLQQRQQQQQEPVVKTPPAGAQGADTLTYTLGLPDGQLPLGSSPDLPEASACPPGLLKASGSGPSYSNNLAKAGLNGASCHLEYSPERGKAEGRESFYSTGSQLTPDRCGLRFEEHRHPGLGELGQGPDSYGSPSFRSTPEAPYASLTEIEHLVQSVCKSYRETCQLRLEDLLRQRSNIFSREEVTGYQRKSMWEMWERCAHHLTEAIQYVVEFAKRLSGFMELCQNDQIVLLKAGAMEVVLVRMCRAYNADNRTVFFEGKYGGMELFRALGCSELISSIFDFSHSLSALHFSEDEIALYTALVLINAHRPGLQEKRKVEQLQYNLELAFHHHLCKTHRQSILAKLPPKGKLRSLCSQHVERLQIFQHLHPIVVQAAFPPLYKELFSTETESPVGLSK", "test": "Binding affinity to ROR-gamma LBD (265 to 507 residues)(unknown origin) assessed as increase in thermal stability by measuring melting temperature at 100 uM incubated for 2 hrs followed by heating at 20 to 90 degreeC by NanoDSF assay (reference value: 46.0 degreeC)", "settings": "filed as antagonist"}, "HPAF-II [2]": {"test_system": "HPAF-II", "test": "Effect on mTORC1 signalling pathway in human HPAF-II cells at 20 uM incubated for 24 hrs by KEGG analysis", "type": "functional, cell-based"}, "[3]": {"target": "T1, Nuclear receptor ROR-gamma (Homo sapiens)", "test": "Binding affinity to ROR-gamma LBD (unknown origin) assessed as protein stabilization by measuring reduction in hydrolysis rate incubated for 10 mins by SDS-PAGE analysis", "settings": "filed as antagonist, dose <= 100.0 µM"}, "HPAF-II [4]": {"test_system": "HPAF-II", "test": "Inhibition of MAPK signalling pathway in human HPAF-II cells at 20 uM incubated for 24 hrs by KEGG analysis", "type": "functional, cell-based"}, "HPAF-II [5]": {"test_system": "HPAF-II", "test": "Downregulation of cancer-related gene expression in human HPAF-II cells at 20 uM incubated for 24 hrs by GO analysis", "type": "functional, cell-based"}, "HPAF-II [6]": {"test_system": "HPAF-II", "test": "Downregulation of retinol metabolism-related gene expression in human HPAF-II cells at 20 uM incubated for 24 hrs by KEGG analysis", "type": "functional, cell-based"}, "[7]": {"target": "T1, Nuclear receptor ROR-gamma (Homo sapiens)", "test": "Binding affinity to ROR-gamma LBD (265 to 507 residues)(unknown origin) assessed as increase in thermal stability by measuring change in melting temperature at 100 uM incubated for 2 hrs followed by heating at 20 to 90 degreeC by NanoDSF assay (reference value: 46.0 degreeC)", "settings": "filed as antagonist"}, "[8]": {"target": "T2, Nuclear receptor ROR-gamma (Homo sapiens, UniProt P51449)", "T2 sequence (P51449 whole entry)": "T1 sequence (whole entry)", "test": "Antagonist activity at ROR-gamma LBD (unknown origin) using biotinylated SRC1-2 as substrate preincubated for 60 mins followed by substrate addition measured after 30 mins by HTRF assay"}, "HPAF-II [9]": {"test_system": "HPAF-II", "test": "Inhibition of RAS signalling pathway in human HPAF-II cells at 20 uM incubated for 24 hrs by KEGG analysis", "type": "functional, cell-based"}, "HPAF-II [10]": {"test_system": "HPAF-II", "test": "Downregulation of drug metabolism-related gene expression in human HPAF-II cells at 20 uM incubated for 24 hrs by KEGG analysis", "type": "functional, cell-based"}, "HPAF-II [11]": {"test_system": "HPAF-II", "test": "Downregulation of phosphorylated AKT expression in human HPAF-II cells at 20 uM incubated for 48 hrs by Western blot analysis", "type": "functional, cell-based"}, "HPAF-II [12]": {"test_system": "HPAF-II", "test": "Downregulation of chemical carcinogenesis-related gene expression in human HPAF-II cells at 20 uM incubated for 24 hrs by KEGG analysis", "type": "functional, cell-based"}, "HPAF-II [13]": {"test_system": "HPAF-II", "test": "Downregulation of cancer-related gene expression in human HPAF-II cells at 20 uM incubated for 24 hrs by KEGG analysis", "type": "functional, cell-based"}, "HPAF-II [14]": {"test_system": "HPAF-II", "test": "Antitumor activity against human HPAF-II cells measured after 72 hrs", "type": "functional, cell-based"}, "[15]": {"target": "T2, Nuclear receptor ROR-gamma", "test": "Binding affinity to ROR-gamma LBD (unknown origin) assessed as dissociation constant by ITC analysis"}, "HPAF-II [16]": {"test_system": "HPAF-II", "test": "Downregulation of retinol metabolism-related gene expression in human HPAF-II cells at 20 uM incubated for 24 hrs by GO analysis", "type": "functional, cell-based"}, "HPAF-II [17]": {"test_system": "HPAF-II", "test": "Downregulation of lipid metabolism-related gene expression in human HPAF-II cells at 20 uM incubated for 24 hrs by GO analysis", "type": "functional, cell-based"}, "[18]": {"target": "T2, Nuclear receptor ROR-gamma", "test": "Binding affinity to CM5 chip-immobilized recombinant ROR-gamma LBD (unknown origin) assessed as dissociation constant by SPR analysis"}, "HPAF-II [19]": {"test_system": "HPAF-II", "test": "Downregulation of phosphorylated ERK expression in human HPAF-II cells at 20 uM incubated for 48 hrs by Western blot analysis", "type": "functional, cell-based"}, "HPAF-II [20]": {"test_system": "HPAF-II", "test": "Downregulation of phosphorylated MEK expression in human HPAF-II cells at 20 uM incubated for 48 hrs by Western blot analysis", "type": "functional, cell-based"}}, "note": "Calls of active or inactive are those of the source. The calls are words filed in the database; no cut-off is given here.", "data": [{"compound": "C=C(C)[C@@H]1CC[C@]2(C(=O)O)CC[C@]3(C)[C@H](CC[C@@H]4[C@@]5(C)CC[C@H](O)C(C)(C)[C@@H]5CC[C@]43C)[C@@H]12", "note": "[BETULINIC ACID]", "values": [{"measurement": "Tm", "setting": "[1]", "value": 60.2, "unit": "°C"}, {"measurement": "Activity", "setting": "HPAF-II [2]", "value": "Active"}, {"measurement": "Activity", "setting": "[3]", "value": "Dose-Dependent Effect"}, {"measurement": "inhibition", "setting": "HPAF-II [4]", "value": "Active"}, {"measurement": "Activity", "setting": "HPAF-II [5]", "value": "Active"}, {"measurement": "Activity", "setting": "HPAF-II [6]", "value": "Active"}, {"measurement": "ΔTm", "setting": "[7]", "value": 14.1, "unit": "°C"}, {"measurement": "IC50", "setting": "[8]", "value": 2.2, "unit": "µM"}, {"measurement": "inhibition", "setting": "HPAF-II [9]", "value": "Active"}, {"measurement": "Activity", "setting": "HPAF-II [10]", "value": "Active"}, {"measurement": "Activity", "setting": "HPAF-II [11]", "value": "Active"}, {"measurement": "Activity", "setting": "HPAF-II [12]", "value": "Active"}, {"measurement": "Activity", "setting": "HPAF-II [13]", "value": "Active"}, {"measurement": "IC50", "setting": "HPAF-II [14]", "value": 12.5, "unit": "µM"}, {"measurement": "Kd", "setting": "[15]", "value": 3.39, "unit": "µM"}, {"measurement": "Activity", "setting": "HPAF-II [16]", "value": "Active"}, {"measurement": "Activity", "setting": "HPAF-II [17]", "value": "Active"}, {"measurement": "Kd", "setting": "[18]", "value": 2.7, "unit": "µM"}, {"measurement": "Activity", "setting": "HPAF-II [19]", "value": "Active"}, {"measurement": "Activity", "setting": "HPAF-II [20]", "value": "Active"}]}]}
